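Following 48 hours of exposure in 96-well plates, responses at five concentrations were used to interpolate endpoints linearly. Definition used: TGI = concentration required for complete inhibition of growth.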
Assays:
Assay in all cases: NCI tumour cell line growth inhibition, 48 h
786-0 renal = tested on: 786-0 renal
A498 renal = tested on: A498 renal
A549 NSCLC = tested on: A549 NSCLC
ACHN renal = tested on: ACHN renal
BT-549 breast = tested on: BT-549 breast
CAKI-1 renal = tested on: CAKI-1 renal
CCRF-CEM leukemia = tested on: CCRF-CEM leukemia
COLO 205 colon = tested on: COLO 205 colon
DU-145 prostate = tested on: DU-145 prostate
EKVX NSCLC = tested on: EKVX NSCLC
HCC-2998 colon = tested on: HCC-2998 colon
HCT-116 colon = tested on: HCT-116 colon
HCT-15 colon = tested on: HCT-15 colon
HL-60(TB) leukemia = tested on: HL-60(TB) leukemia
HOP-62 NSCLC = tested on: HOP-62 NSCLC
HOP-92 NSCLC = tested on: HOP-92 NSCLC
HS 578T breast = tested on: HS 578T breast
HT29 colon = tested on: HT29 colon
IGROV1 ovarian = tested on: IGROV1 ovarian
K-562 leukemia = tested on: K-562 leukemia
KM12 colon = tested on: KM12 colon
LOX IMVI melanoma = tested on: LOX IMVI melanoma
M14 melanoma = tested on: M14 melanoma
MALME-3M melanoma = tested on: MALME-3M melanoma
MCF7 breast = tested on: MCF7 breast
MDA-MB-231 breast = tested on: MDA-MB-231 breast
MDA-MB-435 = tested on: MDA-MB-435
MDA-N = tested on: MDA-N
MOLT-4 leukemia = tested on: MOLT-4 leukemia
NCI-H226 lung = tested on: NCI-H226 lung
NCI-H23 lung = tested on: NCI-H23 lung
NCI-H460 lung = tested on: NCI-H460 lung
NCI-H522 lung = tested on: NCI-H522 lung
NCI/ADR-RES ovarian = tested on: NCI/ADR-RES ovarian
OVCAR-3 ovarian = tested on: OVCAR-3 ovarian
OVCAR-4 ovarian = tested on: OVCAR-4 ovarian
OVCAR-5 ovarian = tested on: OVCAR-5 ovarian
OVCAR-8 ovarian = tested on: OVCAR-8 ovarian
PC-3 prostate = tested on: PC-3 prostate
RPMI-8226 leukemia = tested on: RPMI-8226 leukemia
SF-268 CNS = tested on: SF-268 CNS
SF-295 CNS = tested on: SF-295 CNS
SF-539 CNS = tested on: SF-539 CNS
SK-MEL-2 melanoma = tested on: SK-MEL-2 melanoma
SK-MEL-28 melanoma = tested on: SK-MEL-28 melanoma
SK-MEL-5 melanoma = tested on: SK-MEL-5 melanoma
SK-OV-3 ovarian = tested on: SK-OV-3 ovarian
SN12C renal = tested on: SN12C renal
SNB-19 CNS = tested on: SNB-19 CNS
SNB-75 CNS = tested on: SNB-75 CNS
SR leukemia = tested on: SR leukemia
SW-620 colon = tested on: SW-620 colon
T-47D breast = tested on: T-47D breast
TK-10 renal = tested on: TK-10 renal
U251 CNS = tested on: U251 CNS
UACC-257 melanoma = tested on: UACC-257 melanoma
UACC-62 melanoma = tested on: UACC-62 melanoma
UO-31 renal = tested on: UO-31 renal

Measured: TGI

OCCCSCCO
> 100 µM: all assays above

From PubChem BioAssay (NCI)
